# Data from patent US7842856B2, “Herbicide resistance gene, compositions and methods” (The Board of Trustees of the University of Illinois, priority 2005, dated 2010).
# Experiments:
# [1] = test system: A. tuberculatus S (susceptible) parent; experiment: Herbicide dose-response on whole plants, S parent; type: in vivo, Amaranthus tuberculatus (waterhemp); conditions: S line
# [2] = test system: Arabidopsis T1 seeds, PPX2L Resistant plasmid; experiment: T1 seed germination on herbicide-containing medium, PPX2L Resistant plasmid; type: in vivo, Arabidopsis thaliana; conditions: for Number of Germinated Seedlings on Imazethapyr: approximately 1000 seeds
# Method: (§1) Reverse transcription PCR (RT-PCR) products from resistant and sensitive biotypes were used as template for cloning the resistant and sensitive genes through PCR amplifications. These amplifications were performed using the ligation independent cloning (LIC) adapted oligonucleotide primers specific to PPX2L, P1 and P2, and cloned into the LIC site of a plant transformation vector, using techniques known to those skilled in the art. These primers used in these experiments were as follows: P1, […], SEQ ID NO:49; P2, […], SEQ ID NO:50; P3, […], SEQ ID NO:51; P4, […], SEQ ID NO:52; P5, […], SEQ ID NO:53; and P6, […], SEQ ID NO:54. These plant transformation vectors contained an imidazolinone tolerant Arabidopsis AHAS large subunit gene under the control of the actin promoter and octopine synthase terminator, which allowed selection on Pursuit (imazethapyr) for all transformants, especially for selection of lactofen […] transformants. For expression of the resistant and sensitive genes in Arabidopsis, the coding sequences for each resistant or sensitive gene were inserted after the parsley ubiquitin promoter and before the nopaline synthase terminator. Several clones each of susceptible and resistant PPX2L were obtained from different biotype isolates and each was sequenced.
# (§2) Three vector plasmids were constructed: VC-MBW101-1, containing the susceptible version of the PPX2L gene (SEQ ID NO:47); VC-MBW102-1, containing the resistant version of the PPX2L gene (SEQ ID NO:25); and VC-MBW103-1, containing the SRS version of the PPX2L gene (SEQ ID NO:45); All three of these plasmids were transformed into Agrobacterium tumefaciens. as follows:
# (§3) For the transformation, 6-week-old Arabidopsis plants, which had just started flowering were immersed for 10 seconds into the above-described agrobacterial suspension which had previously been treated with 10 μl Silwett L77 (Crompton S. A., Osi Specialties, CH). The method is described in Clough and Bent. 1998. Plant J. 16:735-743.
# (§4) These T1 generation seeds, which represented a collection of a few transformed seeds in a population of untransformed seeds, were sterilized by liquid sterilization (rinsing in a solution of 400 mL of ddH2O+100 mL of bleach+250 uL of 20% SDS, followed by rinsing in sterile distilled water).
# (§5) These T1 seeds were put into 0.8% agarose and plated onto MS media with 1% sucrose, Cefotaxmine (500 ug/mL) and benomyl (2 ug/mL). For selection of transformants, these contained either 100 nM Pursuit (imazethapyr), 70 nM Cobra (lactofen) or 125 nM Cobra. Arabidopsis ecotype Columbia-0 (Co10) was also plated as a control on all types of plates and the imidazolinone tolerant mutant csr1-2 was plated on Pursuit plates as a positive control. The seeds were stratified on the plates for three days at 4° C.
# (§6) The plates were then incubated in a Percival Scientific (Perry, Iowa) growth chamber at 21-22° C. and 15 hours of light for six days and scored for viable seedlings on the selective plates.
# (§7) The numbers of seeds were the raw counts of actual seeds on the selection plates. The numbers of seedlings were the number of green seedlings found on each plate, indicative of resistance to the selective agent (lactofen or imazethapyr). If there were no seedlings, there were no resistant plants. Only the “resistant” forms of PPX2L conferred lactofen tolerance, confirming that the isolated PPX2L coding sequence from the herbicide resistant waterhemp was sufficient to confer the PPO-inhibiting herbicide resistance phenotype on transgenic plants into which the plant expressible sequence was introduced. Plants obtained from the imazethapyr selection indicated the presence of transformed seeds with the sensitive form of PPX2L. Without wishing to be bound by any particular theory, the single seedling on transformation set 5 is believed to have been a stray resistant transformant.
# [3] = test system: Arabidopsis Columbia-0 (untransformed control); experiment: Seed germination on herbicide-containing medium, untransformed control; type: in vivo, Arabidopsis thaliana
# Method: as §5, §6, §7
# [4] = test system: Arabidopsis T1 seeds, PPX2L Susceptible plasmid; experiment: T1 seed germination on herbicide-containing medium, PPX2L Susceptible plasmid; type: in vivo, Arabidopsis thaliana; conditions: for Number of Germinated Seedlings on Imazethapyr: approximately 1000 seeds
# Method: as §1, §2, §3, §4, §5, §6, §7
# [5] = test system: Arabidopsis T1 seeds, PPX2L "SRS" plasmid; experiment: T1 seed germination on herbicide-containing medium, PPX2L SRS plasmid; type: in vivo, Arabidopsis thaliana; conditions: for Number of Germinated Seedlings on Imazethapyr: approximately 1000 seeds
# Method: as §1
# In addition, a chimeric “SRS” gene (see SEQ ID NO:45), which has the 5′ end of the susceptible coding sequence up to the unique XhoI site, the internal XhoI to DraIII fragment of the resistant coding sequence containing the resistance mutation, and the 3′ end of the susceptible from the unique DraIII site to the stop codon, was produced by amplifying sensitive RT-PCR template with P1 and P3 as well as with P6 and P2. Resistant template was also amplified with P4 and P5. These amplicons were digested with XhoI and DraIII and purified, then ligated. The ligation reaction was cloned into the LIC site of the plant transformation vector, as above.
# as §2, §3, §4, §5, §6
# The numbers of seeds were the raw counts of actual seeds on the selection plates. The numbers of seedlings were the number of green seedlings found on each plate, indicative of resistance to the selective agent (lactofen or imazethapyr). If there were no seedlings, there were no resistant plants. […]
structure (smiles),measurement,setting,value
"CCOC(=O)C(C)OC(=O)c1cc(Oc2ccc(C(F)(F)F)cc2Cl)ccc1[N+](=O)[O-] (racemic) [Lactofen, (±)-2-ethoxy-1-methyl-2-oxoethyl 5-{2-chloro-4-(trifluoromethyl)phenoxy}-2-nitrobenzoate]",GR50 (growth reduction by 50%) S,[1]; 10 DAT,0.2 g ai ha^−1
same,GR50 (growth reduction by 50%) S,[1]; 15 DAT,0.4 g ai ha^−1
same,Calculated Number of Germinated Seedlings per 1000 Seeds for both rates of Lactofen,[2]; transformation set 1,7
same,Number of Germinated Seedlings on 125 nM Lactofen,"[2]; transformation set 1, 560 seeds plated",4
same,Number of Germinated Seedlings on 70 nM lactofen,"[2]; transformation set 1, 640 seeds plated",4
same,Calculated Number of Germinated Seedlings per 1000 Seeds for both rates of Lactofen,[2]; transformation set 2,3
same,Number of Germinated Seedlings on 125 nM Lactofen,"[2]; transformation set 2, 1152 seeds plated",4
same,Number of Germinated Seedlings on 70 nM lactofen,"[2]; transformation set 2, 1276 seeds plated",3
same,Calculated Number of Germinated Seedlings per 1000 Seeds for both rates of Lactofen,[2]; transformation set 3,2
same,Number of Germinated Seedlings on 70 nM lactofen,"[2]; transformation set 3, 980 seeds plated",3
same,Number of Germinated Seedlings on 125 nM Lactofen,"[2]; transformation set 3, 1664 seeds plated",1
same,Calculated Number of Germinated Seedlings per 1000 Seeds for both rates of Lactofen,[3],0
same,Number of Germinated Seedlings on 125 nM Lactofen,[3]; 600 seeds plated,0
same,Number of Germinated Seedlings on 70 nM lactofen,"[3]; 884 seeds plated, six days",0
same,Calculated Number of Germinated Seedlings per 1000 Seeds for both rates of Lactofen,[4]; transformation set 4-291,0
same,Number of Germinated Seedlings on 70 nM lactofen,"[4]; transformation set 4-291, 500 seeds plated",0
same,Number of Germinated Seedlings on 125 nM Lactofen,"[4]; transformation set 4-291, 680 seeds plated",0
same,Calculated Number of Germinated Seedlings per 1000 Seeds for both rates of Lactofen,[4]; transformation set 5,1
same,Number of Germinated Seedlings on 70 nM lactofen,"[4]; transformation set 5, 460 seeds plated",1
same,Number of Germinated Seedlings on 125 nM Lactofen,"[4]; transformation set 5, 764 seeds plated",0
same,Calculated Number of Germinated Seedlings per 1000 Seeds for both rates of Lactofen,[5]; transformation set 4-390,9
same,Number of Germinated Seedlings on 125 nM Lactofen,"[5]; transformation set 4-390, 1160 seeds plated",6
same,Number of Germinated Seedlings on 70 nM lactofen,"[5]; transformation set 4-390, 1176 seeds plated",14
same,Calculated Number of Germinated Seedlings per 1000 Seeds for both rates of Lactofen,[5]; transformation set 4-414,5
same,Number of Germinated Seedlings on 125 nM Lactofen,"[5]; transformation set 4-414, 880 seeds plated",2
same,Number of Germinated Seedlings on 70 nM lactofen,"[5]; transformation set 4-414, 1036 seeds plated",7
CCc1cnc(C2=NC(C)(C(C)C)C(=O)N2)c(C(=O)O)c1 (centres unmarked) [Imazethapyr],Number of Germinated Seedlings on Imazethapyr,"[2]; transformation set 1, 100 nM Pursuit",9
same,Number of Germinated Seedlings on Imazethapyr,"[2]; transformation set 2, 100 nM Pursuit",9
same,Number of Germinated Seedlings on Imazethapyr,"[2]; transformation set 3, 100 nM Pursuit",6
same,Number of Germinated Seedlings on Imazethapyr,"[3]; 100 nM Pursuit, approximately 1000 seeds",0
same,Number of Germinated Seedlings on Imazethapyr,"[4]; transformation set 4-291, 100 nM Pursuit",4
same,Number of Germinated Seedlings on Imazethapyr,"[4]; transformation set 5, 100 nM Pursuit",12
same,Number of Germinated Seedlings on Imazethapyr,"[5]; transformation set 4-390, 100 nM Pursuit",10
same,Number of Germinated Seedlings on Imazethapyr,"[5]; transformation set 4-414, 100 nM Pursuit",11
"O=C(O)c1cc(Oc2ccc(C(F)(F)F)cc2Cl)ccc1[N+](=O)[O-] [Acifluorfen, 5-{2-chloro-4-(trifluoromethyl)phenoxy}-2-nitrobezoic acid]",GR50 (growth reduction by 50%) S,[1]; 10 DAT,1.6 g ai ha^−1
